Test results from ChEMBL document CHEMBL4354805, “Discovery of MK-8719, a Potent O-GlcNAcase Inhibitor as a Potential Treatment for Tauopathies” (J Med Chem, 2019).
One block for each compound: values may come before it.

What was measured:
[1] = AUC (0 to 24 hrs) in rat brain at 10 mg/kg, po measured upto 24 hrs; type: ADME, organism-based; design: dose 10 mg/kg, time < 24 hr, route oral; conditions: in vivo
[2] = AUCN in Wistar Han rat at 10 mg/kg, po; type: ADME, organism-based; conditions: in vivo
[3] = molecular target: T1, Beta-hexosaminidase subunit beta (Homo sapiens, UniProt P07686); assay: Inhibition of human beta hexosaminidase assessed as inhibitory constant using 4-methylumbelliferyl N-acetyl-beta-D-glucosaminide dihydrate as substrate measured every 60 sec for 45 mins by fluorescence spectrophotometry
T1 sequence (P07686 whole entry): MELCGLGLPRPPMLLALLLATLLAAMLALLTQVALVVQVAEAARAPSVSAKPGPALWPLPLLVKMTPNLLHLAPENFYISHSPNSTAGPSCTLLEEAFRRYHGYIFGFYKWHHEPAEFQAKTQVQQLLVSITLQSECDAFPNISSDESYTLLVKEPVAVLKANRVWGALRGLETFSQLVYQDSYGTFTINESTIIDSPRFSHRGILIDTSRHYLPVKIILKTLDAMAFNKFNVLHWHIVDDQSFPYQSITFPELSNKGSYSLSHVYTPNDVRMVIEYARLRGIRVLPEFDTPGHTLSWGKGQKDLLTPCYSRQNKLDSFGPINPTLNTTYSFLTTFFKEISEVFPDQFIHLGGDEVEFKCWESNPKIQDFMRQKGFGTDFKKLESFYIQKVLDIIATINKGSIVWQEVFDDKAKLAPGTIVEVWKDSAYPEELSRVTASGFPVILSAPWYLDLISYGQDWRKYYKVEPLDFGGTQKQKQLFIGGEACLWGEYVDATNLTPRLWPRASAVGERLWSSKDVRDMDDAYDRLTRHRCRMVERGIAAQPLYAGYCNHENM

[4] = Volume of distribution at steady state in Wistar Han rat at 2 mg/kg, iv or 10 mg/kg, po; type: ADME, organism-based; conditions: in vivo, read-out: Vdss
[5] = Fraction unbound in Wistar Han rat plasma at 2.5 uM by equilibrium dialysis; type: ADME, cell-free
[6] = Drug uptake in rat brain at 3 mg/kg, po measured after 8 hrs; type: ADME, organism-based; conditions: in vivo
[7] = molecular target: Cytochrome P450 3A4 (Homo sapiens, UniProt P08684); assay: Inhibition of CYP3A4 (unknown origin); type: ADME
Cytochrome P450 3A4, sequence (P08684 whole entry): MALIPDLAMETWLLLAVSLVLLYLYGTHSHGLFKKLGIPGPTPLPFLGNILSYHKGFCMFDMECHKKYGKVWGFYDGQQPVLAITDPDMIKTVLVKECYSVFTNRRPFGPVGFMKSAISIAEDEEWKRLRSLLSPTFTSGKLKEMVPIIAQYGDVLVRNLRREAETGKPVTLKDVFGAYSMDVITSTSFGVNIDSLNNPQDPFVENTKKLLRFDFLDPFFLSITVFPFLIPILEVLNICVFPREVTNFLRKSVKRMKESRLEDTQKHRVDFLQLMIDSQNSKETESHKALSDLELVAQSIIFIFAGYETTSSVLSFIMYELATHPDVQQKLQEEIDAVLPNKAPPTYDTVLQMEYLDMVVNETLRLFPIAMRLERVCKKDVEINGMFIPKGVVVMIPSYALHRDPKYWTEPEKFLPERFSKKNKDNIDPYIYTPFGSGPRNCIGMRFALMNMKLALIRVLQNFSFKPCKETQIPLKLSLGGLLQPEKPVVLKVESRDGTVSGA

[8] = molecular target: Voltage-dependent L-type calcium channel subunit alpha-1C (Homo sapiens, UniProt Q13936); assay: Inhibition of Cav1.2 (unknown origin)
[9] = Oral bioavailability in Wistar Han rat at 10 mg/kg; type: ADME, organism-based; conditions: in vivo
[10] = molecular target: T2, Nuclear receptor subfamily 1 group I member 2 (Homo sapiens, UniProt O75469); assay: Activation of PXR (unknown origin) assessed as CYP3A4 induction
T2 sequence (O75469 whole entry): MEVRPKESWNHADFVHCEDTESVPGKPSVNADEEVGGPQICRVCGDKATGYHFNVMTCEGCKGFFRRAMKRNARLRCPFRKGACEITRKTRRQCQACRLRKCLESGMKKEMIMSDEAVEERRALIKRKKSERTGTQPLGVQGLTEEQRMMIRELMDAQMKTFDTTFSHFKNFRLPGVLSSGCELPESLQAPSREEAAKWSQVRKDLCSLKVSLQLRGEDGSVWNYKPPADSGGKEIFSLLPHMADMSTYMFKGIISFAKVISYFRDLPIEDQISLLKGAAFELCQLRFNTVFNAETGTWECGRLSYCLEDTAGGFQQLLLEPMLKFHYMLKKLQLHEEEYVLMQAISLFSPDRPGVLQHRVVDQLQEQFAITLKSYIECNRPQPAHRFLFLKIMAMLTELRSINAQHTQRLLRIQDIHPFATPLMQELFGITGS

[11] = Ratio of drug uptake in rat brain to plasma at 3 mg/kg, po measured after 8 hrs; type: ADME, organism-based; conditions: read-out: BPR
[12] = molecular target: Cytochrome P450 2D6 (Homo sapiens, UniProt P10635); assay: Inhibition of CYP2D6 (unknown origin); type: ADME
Cytochrome P450 2D6, sequence (P10635 whole entry): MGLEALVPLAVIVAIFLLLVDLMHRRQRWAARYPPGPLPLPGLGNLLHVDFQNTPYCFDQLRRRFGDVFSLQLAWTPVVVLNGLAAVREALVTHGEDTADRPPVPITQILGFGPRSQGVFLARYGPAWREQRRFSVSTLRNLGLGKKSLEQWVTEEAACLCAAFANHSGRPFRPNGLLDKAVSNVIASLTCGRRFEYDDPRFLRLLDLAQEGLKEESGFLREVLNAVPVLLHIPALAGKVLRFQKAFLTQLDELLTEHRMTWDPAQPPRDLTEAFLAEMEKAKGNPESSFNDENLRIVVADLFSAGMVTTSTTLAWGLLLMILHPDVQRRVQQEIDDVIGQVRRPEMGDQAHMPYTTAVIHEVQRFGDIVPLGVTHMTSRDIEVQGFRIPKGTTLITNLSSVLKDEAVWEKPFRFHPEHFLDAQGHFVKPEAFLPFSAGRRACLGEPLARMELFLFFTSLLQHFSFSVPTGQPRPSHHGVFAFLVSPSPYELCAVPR

[13] = test system: MDR1; assay: Apparent permeability in pig LLC-PK1 cells transfected with MDR1; type: ADME, cell-based, Sus scrofa
[14] = Ratio of drug uptake in rat brain to plasma at 3 mg/kg, po measured after 24 hrs; type: ADME, organism-based; conditions: read-out: BPR
[15] = molecular target: Sodium channel protein type 5 subunit alpha (Homo sapiens, UniProt Q14524); assay: Inhibition of Nav1.5 (unknown origin)
Sodium channel protein type 5 subunit alpha, sequence (Q14524 whole entry): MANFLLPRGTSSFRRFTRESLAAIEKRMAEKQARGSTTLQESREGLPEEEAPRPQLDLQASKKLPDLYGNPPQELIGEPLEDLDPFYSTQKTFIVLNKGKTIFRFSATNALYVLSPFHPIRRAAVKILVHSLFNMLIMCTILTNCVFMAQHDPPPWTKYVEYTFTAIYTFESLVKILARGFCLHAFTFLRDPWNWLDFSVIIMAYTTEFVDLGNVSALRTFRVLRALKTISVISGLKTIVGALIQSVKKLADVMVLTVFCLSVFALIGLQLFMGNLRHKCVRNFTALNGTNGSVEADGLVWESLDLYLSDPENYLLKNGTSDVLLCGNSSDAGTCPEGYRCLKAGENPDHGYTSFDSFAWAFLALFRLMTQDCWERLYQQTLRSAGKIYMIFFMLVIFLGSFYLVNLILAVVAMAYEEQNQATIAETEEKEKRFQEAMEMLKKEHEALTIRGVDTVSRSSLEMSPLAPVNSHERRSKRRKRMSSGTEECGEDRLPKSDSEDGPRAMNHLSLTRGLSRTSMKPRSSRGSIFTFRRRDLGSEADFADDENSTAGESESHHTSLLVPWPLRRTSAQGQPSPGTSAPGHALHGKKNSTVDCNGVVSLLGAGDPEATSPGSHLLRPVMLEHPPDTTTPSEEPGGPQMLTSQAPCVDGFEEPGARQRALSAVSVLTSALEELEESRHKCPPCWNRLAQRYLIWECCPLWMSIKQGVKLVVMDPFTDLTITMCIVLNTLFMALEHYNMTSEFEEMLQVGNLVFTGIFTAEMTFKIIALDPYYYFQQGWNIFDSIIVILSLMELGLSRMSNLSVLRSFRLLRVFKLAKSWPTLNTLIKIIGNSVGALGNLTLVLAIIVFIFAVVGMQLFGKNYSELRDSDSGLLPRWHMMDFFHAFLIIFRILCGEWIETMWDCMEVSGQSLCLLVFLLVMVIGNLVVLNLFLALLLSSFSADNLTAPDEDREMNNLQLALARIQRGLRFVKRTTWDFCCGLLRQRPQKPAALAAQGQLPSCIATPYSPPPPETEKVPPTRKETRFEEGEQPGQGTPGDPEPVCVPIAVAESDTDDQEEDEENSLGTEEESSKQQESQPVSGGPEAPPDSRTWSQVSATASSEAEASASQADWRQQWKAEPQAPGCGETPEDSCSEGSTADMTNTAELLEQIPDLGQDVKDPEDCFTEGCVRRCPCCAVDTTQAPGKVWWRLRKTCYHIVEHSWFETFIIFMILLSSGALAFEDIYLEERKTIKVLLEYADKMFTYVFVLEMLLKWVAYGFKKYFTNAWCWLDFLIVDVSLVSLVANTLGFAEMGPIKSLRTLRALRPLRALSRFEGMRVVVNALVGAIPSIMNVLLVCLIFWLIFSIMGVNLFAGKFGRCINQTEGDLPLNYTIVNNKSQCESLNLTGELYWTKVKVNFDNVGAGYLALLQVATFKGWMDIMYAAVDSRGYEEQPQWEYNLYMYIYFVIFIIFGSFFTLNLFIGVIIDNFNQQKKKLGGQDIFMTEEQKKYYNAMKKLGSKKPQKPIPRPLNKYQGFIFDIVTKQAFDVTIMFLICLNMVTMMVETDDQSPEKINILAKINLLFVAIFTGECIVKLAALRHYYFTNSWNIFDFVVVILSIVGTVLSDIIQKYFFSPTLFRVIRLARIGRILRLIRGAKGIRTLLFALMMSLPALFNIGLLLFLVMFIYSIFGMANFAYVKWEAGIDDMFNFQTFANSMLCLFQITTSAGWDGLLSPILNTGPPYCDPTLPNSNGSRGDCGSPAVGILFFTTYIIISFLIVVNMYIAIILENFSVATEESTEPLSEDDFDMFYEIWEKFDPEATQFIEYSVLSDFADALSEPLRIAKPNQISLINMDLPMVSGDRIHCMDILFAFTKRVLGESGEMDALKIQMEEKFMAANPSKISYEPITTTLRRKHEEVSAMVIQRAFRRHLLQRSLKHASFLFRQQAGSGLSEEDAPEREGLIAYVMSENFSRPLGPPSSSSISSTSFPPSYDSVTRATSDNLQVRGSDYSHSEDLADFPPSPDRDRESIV

[16] = Drug uptake in rat brain at 3 mg/kg, po measured after 24 hrs; type: ADME, organism-based; conditions: in vivo
[17] = molecular target: Voltage-gated inwardly rectifying potassium channel KCNH2 (Homo sapiens, UniProt Q12809); assay: Displacement of MK-0499 from human ERG
Voltage-gated inwardly rectifying potassium channel KCNH2, sequence (Q12809 whole entry): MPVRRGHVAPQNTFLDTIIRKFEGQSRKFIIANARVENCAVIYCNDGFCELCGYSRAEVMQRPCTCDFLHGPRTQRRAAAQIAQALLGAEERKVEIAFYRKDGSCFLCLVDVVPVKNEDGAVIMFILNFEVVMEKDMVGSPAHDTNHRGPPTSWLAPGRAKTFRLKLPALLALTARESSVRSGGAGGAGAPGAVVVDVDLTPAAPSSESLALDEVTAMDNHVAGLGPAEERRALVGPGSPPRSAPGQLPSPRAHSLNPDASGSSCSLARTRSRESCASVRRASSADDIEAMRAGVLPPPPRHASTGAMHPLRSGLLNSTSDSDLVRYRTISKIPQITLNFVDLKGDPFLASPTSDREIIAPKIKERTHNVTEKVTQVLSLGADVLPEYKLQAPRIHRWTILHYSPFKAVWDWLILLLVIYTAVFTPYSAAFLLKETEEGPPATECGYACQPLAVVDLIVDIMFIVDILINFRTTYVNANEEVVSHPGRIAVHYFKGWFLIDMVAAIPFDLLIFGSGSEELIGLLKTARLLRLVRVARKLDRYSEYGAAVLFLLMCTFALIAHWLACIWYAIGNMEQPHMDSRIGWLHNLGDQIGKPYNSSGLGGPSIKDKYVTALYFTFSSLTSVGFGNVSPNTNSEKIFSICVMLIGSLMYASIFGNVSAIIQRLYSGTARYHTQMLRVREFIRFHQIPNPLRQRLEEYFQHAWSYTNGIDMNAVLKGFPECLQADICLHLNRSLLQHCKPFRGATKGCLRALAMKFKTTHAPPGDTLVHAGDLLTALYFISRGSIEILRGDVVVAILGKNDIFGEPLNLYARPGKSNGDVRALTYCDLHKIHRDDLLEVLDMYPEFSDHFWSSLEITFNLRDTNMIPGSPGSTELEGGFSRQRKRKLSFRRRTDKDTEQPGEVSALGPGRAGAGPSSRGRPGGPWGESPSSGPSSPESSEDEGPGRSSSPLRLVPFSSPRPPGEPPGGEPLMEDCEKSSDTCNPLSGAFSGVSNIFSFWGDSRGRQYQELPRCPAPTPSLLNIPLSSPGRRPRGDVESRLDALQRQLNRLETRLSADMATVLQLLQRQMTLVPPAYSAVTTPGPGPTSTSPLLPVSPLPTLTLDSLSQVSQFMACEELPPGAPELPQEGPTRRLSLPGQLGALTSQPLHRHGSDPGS

[18] = Fraction unbound in human plasma at 2.5 uM by equilibrium dialysis; type: ADME, cell-free
[19] = Clearance in Wistar Han rat at 2 mg/kg, iv; type: ADME, organism-based; conditions: in vivo
[20] = Half life in Wistar Han rat at 2 mg/kg, iv; type: ADME, organism-based; conditions: in vivo
[21] = Tmax in rat brain at 10 mg/kg, po measured upto 24 hrs; type: ADME, organism-based
[22] = Fraction unbound in human plasma; type: ADME, cell-free
[23] = Ratio of Cmax in brain to plasma in rat at 10 mg/kg, po; type: ADME, organism-based
[24] = molecular target: Cytochrome P450 2C9 (Homo sapiens, UniProt P11712); assay: Inhibition of CYP2C9 (unknown origin); type: ADME
Cytochrome P450 2C9, sequence (P11712 whole entry): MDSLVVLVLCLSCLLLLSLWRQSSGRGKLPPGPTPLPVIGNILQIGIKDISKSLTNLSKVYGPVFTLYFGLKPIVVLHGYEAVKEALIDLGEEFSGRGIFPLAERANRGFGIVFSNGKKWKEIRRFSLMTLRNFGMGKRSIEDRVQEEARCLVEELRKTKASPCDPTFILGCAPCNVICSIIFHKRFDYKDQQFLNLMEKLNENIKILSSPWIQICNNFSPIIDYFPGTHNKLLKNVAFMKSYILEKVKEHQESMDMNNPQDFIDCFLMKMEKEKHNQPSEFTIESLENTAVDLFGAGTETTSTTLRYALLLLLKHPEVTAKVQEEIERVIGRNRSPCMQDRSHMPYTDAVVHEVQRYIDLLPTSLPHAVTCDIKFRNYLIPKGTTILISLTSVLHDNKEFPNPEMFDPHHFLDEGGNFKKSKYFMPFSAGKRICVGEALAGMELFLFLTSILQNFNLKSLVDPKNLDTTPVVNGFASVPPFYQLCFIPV

[25] = Tmax in rat brain at 3 mg/kg, po measured upto 24 hrs; type: ADME, organism-based
[26] = AUCN in Wistar Han rat at 3 mg/kg, po; type: ADME, organism-based; conditions: in vivo
[27] = test system: Rattus norvegicus; assay: Increase in O-protein AUC in rat brain at 3 mg/kg, po measured upto 24 hrs; type: ADME, organism-based; conditions: in vivo
[28] = Oral bioavailability in Wistar Han rat at 3 mg/kg; type: ADME, organism-based; conditions: in vivo
[29] = Volume of distribution at steady state in Wistar Han rat at 1 mg/kg, iv or 3 mg/kg, po; type: ADME, organism-based; conditions: in vivo, read-out: Vdss
[30] = molecular target: T3, Protein O-GlcNAcase (Rattus norvegicus, UniProt Q8VIJ5); assay: Inhibition of OGA in rat PC12 cells assessed as OGlcNAcylated protein level incubated for 24 hrs by ELISA; type: cell-based
T3 sequence (Q8VIJ5 whole entry): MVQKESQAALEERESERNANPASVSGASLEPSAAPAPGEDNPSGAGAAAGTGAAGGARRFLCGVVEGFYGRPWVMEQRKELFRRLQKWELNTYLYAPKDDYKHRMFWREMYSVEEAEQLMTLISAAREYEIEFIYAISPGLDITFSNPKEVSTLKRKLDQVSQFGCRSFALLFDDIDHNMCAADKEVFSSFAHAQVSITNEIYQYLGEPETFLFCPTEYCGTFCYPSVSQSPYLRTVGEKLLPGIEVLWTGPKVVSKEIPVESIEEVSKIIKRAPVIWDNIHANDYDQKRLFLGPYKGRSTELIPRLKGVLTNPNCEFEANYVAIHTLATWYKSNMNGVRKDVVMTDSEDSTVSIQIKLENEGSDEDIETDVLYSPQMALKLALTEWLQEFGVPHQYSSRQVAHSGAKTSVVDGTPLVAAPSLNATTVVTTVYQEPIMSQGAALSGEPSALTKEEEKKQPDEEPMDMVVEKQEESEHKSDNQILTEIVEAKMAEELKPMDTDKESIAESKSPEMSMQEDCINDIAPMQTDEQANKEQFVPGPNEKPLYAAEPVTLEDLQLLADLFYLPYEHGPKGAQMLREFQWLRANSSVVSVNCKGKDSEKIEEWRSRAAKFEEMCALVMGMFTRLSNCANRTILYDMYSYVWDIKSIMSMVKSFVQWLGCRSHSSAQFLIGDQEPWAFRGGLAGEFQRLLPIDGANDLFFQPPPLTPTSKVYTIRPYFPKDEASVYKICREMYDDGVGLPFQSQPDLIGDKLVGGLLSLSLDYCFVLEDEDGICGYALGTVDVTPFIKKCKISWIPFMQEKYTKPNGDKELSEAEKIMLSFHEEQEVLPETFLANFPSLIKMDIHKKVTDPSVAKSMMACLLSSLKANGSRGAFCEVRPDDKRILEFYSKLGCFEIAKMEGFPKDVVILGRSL

[31] = AUC (0 to 24 hrs) in rat brain at 3 mg/kg, po measured upto 24 hrs; type: ADME, organism-based; design: dose 3 mg/kg, time < 24 hr, route oral; conditions: in vivo
[32] = test system: Rattus norvegicus; assay: Elevation of O-protein in rat brain at 3 mg/kg, po measured after 24 hrs relative to control; type: functional
[33] = test system: Rattus norvegicus; assay: Elevation of O-protein in rat brain at 3 mg/kg, po measured after 8 hrs relative to control; type: functional
[34] = Clearance in Wistar Han rat at 1 mg/kg, iv; type: ADME, organism-based; conditions: in vivo
[35] = molecular target: T4, Protein O-GlcNAcase (Homo sapiens, UniProt O60502); assay: Inhibition of recombinant human OGA
T4 sequence (O60502 whole entry): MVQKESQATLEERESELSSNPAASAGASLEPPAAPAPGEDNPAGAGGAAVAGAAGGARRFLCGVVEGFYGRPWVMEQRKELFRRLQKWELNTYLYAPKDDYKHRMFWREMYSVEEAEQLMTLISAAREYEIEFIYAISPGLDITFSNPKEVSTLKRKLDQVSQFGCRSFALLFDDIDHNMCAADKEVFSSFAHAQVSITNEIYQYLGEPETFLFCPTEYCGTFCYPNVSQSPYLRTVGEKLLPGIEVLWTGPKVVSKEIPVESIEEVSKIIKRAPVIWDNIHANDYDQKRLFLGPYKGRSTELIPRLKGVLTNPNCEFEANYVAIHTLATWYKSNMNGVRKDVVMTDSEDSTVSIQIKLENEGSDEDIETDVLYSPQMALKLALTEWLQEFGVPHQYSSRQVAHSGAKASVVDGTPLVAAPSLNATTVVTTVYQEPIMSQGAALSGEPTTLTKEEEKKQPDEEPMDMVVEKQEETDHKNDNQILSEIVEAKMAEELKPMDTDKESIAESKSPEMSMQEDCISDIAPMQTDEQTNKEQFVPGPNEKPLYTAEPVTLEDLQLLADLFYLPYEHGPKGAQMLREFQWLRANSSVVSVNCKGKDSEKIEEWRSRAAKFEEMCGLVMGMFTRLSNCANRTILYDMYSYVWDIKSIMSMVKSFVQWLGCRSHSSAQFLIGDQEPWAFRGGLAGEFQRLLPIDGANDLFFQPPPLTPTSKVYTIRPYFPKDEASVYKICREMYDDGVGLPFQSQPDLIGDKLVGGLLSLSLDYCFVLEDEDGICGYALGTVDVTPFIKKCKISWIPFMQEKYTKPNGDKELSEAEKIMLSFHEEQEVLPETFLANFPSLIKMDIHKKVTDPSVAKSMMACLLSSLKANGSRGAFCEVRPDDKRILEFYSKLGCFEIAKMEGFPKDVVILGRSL

[36] = Half life in Wistar Han rat at 1 mg/kg, iv; type: ADME, organism-based; conditions: in vivo
[37] = Drug excretion in rat at 10 mg/kg, po; type: ADME, organism-based; conditions: in vivo, read-out: Drug excretion
[38] = Drug excretion in dog at 3 mg/kg, po; type: ADME, organism-based, Canis lupus familiaris; conditions: in vivo, read-out: Drug excretion
[39] = Drug excretion in rat urine at 10 mg/kg, po; type: ADME, organism-based; conditions: read-out: Drug excretion
[40] = Drug excretion in rat bile at 10 mg/kg, po; type: ADME, organism-based; conditions: read-out: Drug excretion
[41] = Drug excretion in dog bile at 3 mg/kg, po; type: ADME, organism-based, Canis lupus familiaris; conditions: read-out: Drug excretion
[42] = Drug excretion in dog cage at 3 mg/kg, po; type: ADME, organism-based, Canis lupus familiaris; conditions: read-out: Drug excretion
[43] = Drug excretion in rat feces at 10 mg/kg, po; type: ADME, organism-based; conditions: faeces, read-out: Drug excretion
[44] = Drug excretion in rat cage at 10 mg/kg, po; type: ADME, organism-based; conditions: read-out: Drug excretion
[45] = Drug excretion in dog urine at 3 mg/kg, po; type: ADME, organism-based, Canis lupus familiaris; conditions: read-out: Drug excretion

AUC [1]: 1.14 nM·h/g
AUC/dose [2]: 0.8 µM·kg·h/mg
Ki [3]: > 10 µM
Vd [4]: 1.5 L/kg
fraction unbound at 2.5 µM [5]: 0.73
Drug uptake [6]: 0.185 nmol/g
IC50 [7]: > 50 µM
bioavailability [9]: 30%
EC50 [10]: > 30 µM
Kp at 8 h [11]: 0.94
IC50 [12]: > 50 µM
Papp [13]: ≤ 1 ×10⁻⁶ cm/s
Kp at 24 h [14]: > 2.7
Drug uptake [16]: 0.051 nmol/g
fraction unbound at 2.5 µM [18]: 0.76
clearance [19]: 25 mL/min/kg
half-life [20]: 1.4 h
Tmax [21]: 8 h
fraction unbound [22]: 0.76
Kp [23]: 0.1
IC50 [24]: > 50 µM
SMILES: CCNC1=N[C@@H]2[C@@H](O)[C@H](O)[C@@H](CO)O[C@@H]2S1
IC50 [8]: > 30 µM
IC50 [15]: > 30 µM
IC50 [17]: > 30 µM

Tmax [25]: 8 h
Ki [3]: > 10 µM
AUC/dose [26]: 1.43 µM·kg·h/mg
fraction unbound at 2.5 µM [5]: 0.96
Drug uptake [6]: 0.099 nmol/g
fold change (FC) [27]: 18.44
Kp at 8 h [11]: 1.67
bioavailability [28]: 70.4%
Kp at 24 h [14]: ≥ 29.5
Vd [29]: 2 L/kg
EC50 [30]: 0.0106 µM
AUC [31]: 1.963 nM·h/g
Drug uptake [16]: 0.074 nmol/g
clearance [34]: 36.8 mL/min/kg
fraction unbound at 2.5 µM [18]: 0.84
Ki [35]: 0.00053 µM
half-life [36]: 1.27 h
SMILES: CNC1=N[C@@H]2[C@H](F)[C@H](O)[C@@H](CO)O[C@@H]2S1
fold change (FC) [32]: 1.45
fold change (FC) [33]: 2.13

dose excreted [37]: 96%
dose excreted [38]: 88%
dose excreted [39]: 75%
dose excreted [40]: 17%
dose excreted [41]: 8%
dose excreted [42]: 1%
dose excreted [43]: 0.5%
dose excreted [44]: 3%
dose excreted [45]: 79%
SMILES: [3H][C@@]1(O)[C@@H](C(F)F)O[C@@H]2SC(NCC)=N[C@@H]2[C@H]1O
